The term inhibition denotes how much of the control response was suppressed.

What all share (assay type): cell-based
The test system of data set [1] is HSC-T6. The data set can be described thus: Inhibition of NF-kappaB (unknown origin) expressed in TNFalpha-stimulated rat HSC-T6 cells assessed as reduction of HSC activation at 50 ug/ml treated 30 mins before TNFalpha stimulation measured after 6 hrs by bioluminescence based luciferase reporter gene assay relative to control. For orientation: In a reporter assay the amount or activity of a reporter protein is the signal.

Data set [2] in a line: Cytotoxicity against rat HSC-T6 cells.
In data set [3] the test system is HSC-T6. The data set can be described thus: Inhibition of NF-kappaB (unknown origin) expressed in TNFalpha-stimulated rat HSC-T6 cells assessed as reduction of HSC activation at 10 ug/ml treated 30 mins before TNFalpha stimulation measured after 6 hrs by bioluminescence based luciferase reporter gene assay relative to control. As to conditions: Homo sapiens.

`COc1cc2c(c(O)c1OC)-c1c(cc(OC)c(OC)c1OC)C[C@@H](C)[C@@H](C)C2`: the inhibition in data set [1] turned out to be 69%.

As to `COc1cc([C@@H]2c3cc(OC)c(O)cc3C(=O)[C@@H](C)[C@H]2C)ccc1O`, the inhibition in data set [1] was 46.4%.

Regarding `COc1cc2c(c(OC)c1OC)-c1c(cc3c(c1OC)OCO3)C[C@H](C)[C@](C)(O)[C@H]2OC(=O)c1ccccc1` [GOMISIN C], in data set [2], the Activity result was “Toxic”.

As to `C/C=C(\C)C(=O)O[C@H]1c2cc(OC)c(OC)c(OC)c2-c2c(cc(O)c(OC)c2OC)C[C@H](C)[C@]1(C)O`, the inhibition in data set [1] came to 43.2%.

Take `COc1cc2c(c(OC)c1OC)-c1c3cc4c(c1O[C@](C)([C@H](C)CO)C(=O)O[C@@H]2[C@@H](C)[C@@H](C)C3)OCO4`: in data set [1], the inhibition worked out at 4.87%.

For the molecule `COc1c2c(cc3c1-c1c(cc4c(c1OC)OCO4)[C@H](OC(=O)c1ccccc1)[C@@](C)(O)[C@@H](C)C3)OCO2`, the inhibition in data set [1] is 71.8%.

With `COc1cc2c(c(OC)c1OC)-c1c(cc(O)c(OC)c1OC)C[C@H](C)[C@](C)(O)[C@@H]2OC(=O)c1ccccc1`, the inhibition in data set [1] came out at 27.9%.

For `C/C=C(/C)C(=O)O[C@H]1c2cc3c(c(OC)c2-c2c(cc4c(c2OC)OCO4)C[C@H](C)[C@]1(C)O)OCO3`, the inhibition in data set [1] came to 34.8%.

`COc1cc(C[C@@H](C)[C@@H](C)Cc2cc(O)c(OC)c(OC)c2)cc(O)c1OC` [PREGOMISIN]: the Activity entry in data set [2] is reported as “Toxic”.

Regarding `COc1cc2c(c(OC)c1OC)-c1c(cc(O)c(OC)c1OC)C[C@H](C)[C@H](C)[C@@H]2O`, in data set [1], the inhibition was found to be 49.2%.

For SILYMARIN, the inhibition in data set [3] was 51.4%.

In the case of `C/C=C(/C)C(=O)O[C@H]1c2cc(OC)c(OC)c(OC)c2-c2c(cc3c(c2OC)OCO3)C[C@H](C)[C@@]1(C)O`, the inhibition in data set [1] was found to be 6.64%.

The record behind these values is ChEMBL document CHEMBL2311327, “Anti-liver fibrotic lignans from the fruits of Schisandra arisanensis and Schisandra sphenanthera” (Bioorg Med Chem Lett, 2013).
